Test results as given in patent publication US20020009509A1, “Soya extract containing lipids, process for its production, and pharmaceutical and cosmetic composition” (priority 1999, published 2002).

Test system: dry skin
Assay: Skin hydration of dry skin measured as electric capacitance of the horny layer (Corneometer CM 820)
Type: in vivo
Details: 1.5% extract solution or 2% collagen
Method: The treatment according to the invention was with an emulsion, in water, containing the extract according to the invention and 2% hydroxyethylcellulose. Skin hydration was measured as electric capacitance of the horny layer using a commercially available device (Corneometer CM 820, Courage+ Kazaka, Cologne, Germany). The mean value of five consecutive measurements was determined and recorded as the measured value. The electric capacitance is expressed by means of an arbitrary scale ranging from 0 to 100 units. Groups of 10 subjects were used.

## collagen
60 min after treatment, arbitrary scale 0 to 100 units, groups of 10 subjects, *P < 0.05, **P < 0.001
  Hydration (units), After 60 min: 57.7 ± 0.1* units
After 60 min versus starting value
  Hydration, Change %: 35.6%
Before treatment, arbitrary scale 0 to 100 units, groups of 10 subjects
  Hydration (units), Starting value: 42.7 ± 0.4 units
